The values that follow come from PMC12195648 (Pharmaceuticals, 2025).

Experiment [1] has as its system HEK-293T cells. As to the kind of experiment: Cytotoxicity, resazurin assay, non-neoplastic HEK-293T. Format: cell-based. The following applies: Homo sapiens, 72 h, GI50 ± SD. As for the experimental part:
The human cell line KCL22 was sourced from the German Collection of Microorganisms and Cell Cultures, while K562 and HEK-293T cells were obtained from the European Collection of Authenticated Cell Cultures. The development of the KCL22 subclone B8 (T315I, 100%) has been previously detailed. All cell lines were maintained in a humidified incubator at 37 °C and 5% CO2, following the manufacturer’s instructions, in the appropriate medium supplemented with 10% foetal bovine serum, penicillin (100 IU/mL), streptomycin (100 µg/mL), and glutamine (4 mM).
Cytotoxicity was assessed utilizing resazurin, an indicator dyes that measures oxidation-reduction reactions in the mitochondria of living cells. Cells were seeded into 96-well plates and treated with the compounds for 72 h (six different doses of each compound, in triplicate). After treatment, a solution of resazurin (Merck, Prague, Czech Republic) was added for 4 h, and the fluorescence of resorufin corresponding to viable cell quantity was measured at 544 nm/590 nm (excitation/emission) using a Fluoroskan Ascent microplate reader (LabSystems, Helsinki, Finland).

In experiment [2] the target is T1, recombinant Abl1 kinase (Homo sapiens, UniProt P00519).
T1 construct: made in house
Description: Abl1 kinase inhibition assay (peptide substrate, [γ-33P]ATP). It counts as biochemical. As to the method:
The inhibitory activity of the synthesized compounds was assessed on an in-house produced recombinant Abl1 kinase. The assay utilized 500 µM peptide […] as a substrate in the presence of 1 µM ATP + [γ-33P]ATP (0.05 µCi per reaction) and the test compound in a final volume of 10 µL of reaction buffer (60 mM HEPES-NaOH, pH 7.5, 3 mM MgCl2, 3 mM MnCl2, 3 μM Na-orthovanadate, 1.2 mM DTT, 2.5 μg/50 μL PEG20.000). The reaction was terminated by adding 5 µL of 3% aq. H3PO4. Aliquots were spotted onto P-81 phosphocellulose (Whatman, Maidstone, UK), washed three times with 0.5% aq. H3PO4, and air-dried. Peptide phosphorylation was quantified through digital autoradiography (FLA-7000; Fujifilm, Tokyo, Japan).

In experiment [3] the test system is K562 cells. Description: Cytotoxicity, resazurin assay, K562. Format: cell-based, human. The following applies: for GI50: Homo sapiens, K562, 72 h, resazurin, GI50 ± SD; for SI (K562): GI50 HEK-293T / GI50 K562. As to the method:
(§1) The development of the KCL22 subclone B8 (T315I, 100%) has been previously detailed. All cell lines were maintained in a humidified incubator at 37 °C and 5% CO2, following the manufacturer’s instructions, in the appropriate medium supplemented with 10% foetal bovine serum, penicillin (100 IU/mL), streptomycin (100 µg/mL), and glutamine (4 mM).
(§2) Cytotoxicity was assessed utilizing resazurin, an indicator dyes that measures oxidation-reduction reactions in the mitochondria of living cells. Cells were seeded into 96-well plates and treated with the compounds for 72 h (six different doses of each compound, in triplicate).

Experiment [4] concerns KCL22-B8 cells. Description: Cytotoxicity, resazurin assay, KCL22-B8 (Bcr-Abl T315I). Format: cell-based, human. Particulars: for SI (KCL22-B8): GI50 HEK-293T / GI50 KCL22-B8; for GI50: 72 h, resazurin, GI50 ± SD, Bcr-Abl T315I, imatinib-resistant. As for the experimental part: as §1, §2
Experiment [5] has as its system KCL22 cells. As to the kind of experiment: Cytotoxicity, resazurin assay, KCL22. Format: cell-based, human. Particulars: for SI (KCL22): GI50 HEK-293T / GI50 KCL22; for GI50: Homo sapiens, KCL-22, 72 h, resazurin, GI50 ± SD. As to the method: as §1, §2
Experiment [6] deals with KCL22 cells with Bcr-Abl^T315I. The following applies: cited from earlier work.
Setting [7] is: experimental pIC50 = −logIC50 on Abl, read-out: pIC50 Exp (converted).
Setting [8] is: in vitro inhibition of Abl1 kinase, 1 µM ATP, at least three independent experiments, read-out: IC50 Abl.

Like-named read-outs stand apart in the source and are kept apart here.

T1 sequence (P00519 whole entry): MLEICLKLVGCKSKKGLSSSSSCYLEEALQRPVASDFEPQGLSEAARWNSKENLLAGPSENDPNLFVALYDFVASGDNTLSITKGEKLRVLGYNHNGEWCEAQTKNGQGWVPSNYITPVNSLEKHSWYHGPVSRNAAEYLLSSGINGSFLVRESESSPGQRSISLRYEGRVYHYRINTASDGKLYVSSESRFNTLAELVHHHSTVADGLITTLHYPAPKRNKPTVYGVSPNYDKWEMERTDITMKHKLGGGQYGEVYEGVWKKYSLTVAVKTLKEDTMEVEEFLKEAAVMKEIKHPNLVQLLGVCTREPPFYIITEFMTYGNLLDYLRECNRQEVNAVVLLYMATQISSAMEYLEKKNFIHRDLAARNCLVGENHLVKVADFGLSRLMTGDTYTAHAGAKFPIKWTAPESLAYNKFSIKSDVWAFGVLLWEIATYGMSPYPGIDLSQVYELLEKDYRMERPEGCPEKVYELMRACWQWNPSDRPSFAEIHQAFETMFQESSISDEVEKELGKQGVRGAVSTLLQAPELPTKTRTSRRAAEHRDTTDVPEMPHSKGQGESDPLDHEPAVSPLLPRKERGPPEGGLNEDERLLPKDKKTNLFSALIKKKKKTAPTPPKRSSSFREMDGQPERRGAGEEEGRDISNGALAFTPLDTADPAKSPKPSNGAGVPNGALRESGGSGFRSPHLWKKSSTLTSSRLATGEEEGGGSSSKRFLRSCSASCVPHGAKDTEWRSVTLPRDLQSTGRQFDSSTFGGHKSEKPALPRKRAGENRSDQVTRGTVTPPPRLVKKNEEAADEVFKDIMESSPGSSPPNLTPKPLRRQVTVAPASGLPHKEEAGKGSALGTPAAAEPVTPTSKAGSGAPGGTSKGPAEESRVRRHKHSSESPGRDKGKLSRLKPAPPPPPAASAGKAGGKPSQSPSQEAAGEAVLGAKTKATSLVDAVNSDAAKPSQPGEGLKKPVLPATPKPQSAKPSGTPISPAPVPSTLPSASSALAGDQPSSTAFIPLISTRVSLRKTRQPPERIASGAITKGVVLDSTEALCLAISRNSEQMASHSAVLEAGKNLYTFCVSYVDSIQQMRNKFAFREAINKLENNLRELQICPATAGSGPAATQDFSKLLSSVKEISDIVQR

On to `N#Cc1cccc(Nc2nc(Nc3ccc(N4CCN(CCO)CC4)nc3)nc3c2ncn3CC2CC2)c1` [Compound 7c, 3-((9-(Cyclopropylmethyl)-2-((6-(4-(2-hydroxyethyl)piperazin-1-yl)pyridin-3-yl)amino)-9H-purin-6-yl)amino)benzonitrile], for which the concentration for 50% growth inhibition (GI50) was greater than 25 µM in experiment [1], 0.3 ± 0.11 µM in experiment [3], greater than 25 µM in experiment [4] (Homo sapiens) and 1.54 ± 1.02 µM in experiment [5]. In addition, the values for the IC50 in experiment [2] (setting [7]) and in experiment [2] (setting [8]) were 0.19 µM and 0.19 ± 0.05 µM, respectively. The “fold more potent than 7b” value in experiment [3] (K562 cells, GI50 ratio) was 13 fold; in experiment [5] (KCL22 cells, GI50 ratio), “approximately 8.5 fold”. The “SI (KCL22-B8)” value in experiment [4] was determined as 0.8. Moreover, in experiment [5], the “SI (KCL22)” value is listed as 16.
With `COC(=O)c1ccc(Nc2nc(Nc3ccc(N4CCN(CCO)CC4)cc3)nc3c2ncn3CC2CC2)cc1Cl` [Compound 7e, Methyl 2-chloro-4-((9-(cyclopropylmethyl)-2-((4-(4-(2-hydroxyethyl)piperazin-1-yl)phenyl)amino)-9H-purin-6-yl)amino)benzoate], the GI50 in experiment [1] was determined as 5.98 ± 2.78 µM; in experiment [3], 2.19 ± 1.42 µM; in experiment [4] it was 15.4 ± 0.98 µM; in experiment [4] (Homo sapiens), 13.8 µM; in experiment [5], 3.88 ± 1.46 µM. The figures for the IC50 in experiment [2] (setting [7]) and in experiment [2] (setting [8]) were 0.42 µM and 0.42 ± 0.08 µM, respectively. In addition, the “SI (K562)” value in experiment [3] is listed as 2.7. Also, the “SI (KCL22-B8)” value in experiment [4] is recorded as 0.4. Further, the “SI (KCL22)” value in experiment [5] came out at 1.7.
Consider `OCCN1CCN(c2ccc(Nc3nc(Nc4ccc(Cl)c(C(F)(F)F)c4)c4ncn(CC5CC5)c4n3)cc2)CC1` [Compound 7f, 2-(4-(4-((6-((4-Chloro-3-(trifluoromethyl)phenyl)amino)-9-(cyclopropylmethyl)-9H-purin-2-yl)amino)phenyl)piperazin-1-yl)ethan-1-ol], for which the GI50 came to 3.96 ± 0.57 µM in experiment [1]; 3.56 ± 0.52 µM in experiment [3]; 13.8 ± 3.05 µM in experiment [4]; 15.4 µM in experiment [4] (Homo sapiens); 12.4 ± 4.28 µM in experiment [5]. Also, the IC50 in experiment [2] (setting [7]) is 1.26 µM; in experiment [2] (setting [8]), 1.26 ± 0.65 µM. Moreover, the “SI (K562)” value in experiment [3] was found to be 1.1. Moreover, the “SI (KCL22-B8)” value in experiment [4] amounted to 0.3. Further, in experiment [5], the “SI (KCL22)” value stood at 0.3.
In the case of `OCCN1CCN(c2ccc(Nc3nc(Nc4cccc(Br)c4)c4ncn(CC5CC5)c4n3)cc2)CC1` [Compound 7d, 2-(4-(4-((6-((3-Bromophenyl)amino)-9-(cyclopropylmethyl)-9H-purin-2-yl)amino)phenyl)piperazin-1-yl)ethan-1-ol], the GI50 in experiment [1] turned out to be 7.87 ± 1.53 µM; in experiment [3] it was 1.44 ± 0.91 µM; in experiment [4] (Homo sapiens) it was 20.1 ± 2.35 µM; in experiment [5] it was 2.96 ± 0.97 µM. Besides, the values for the IC50 in experiment [2] (setting [7]) and in experiment [2] (setting [8]) were 0.21 µM and 0.21 ± 0.01 µM, respectively. Also, the “SI (K562)” value in experiment [3] is on record as 5.5. In addition, the “SI (KCL22-B8)” value in experiment [4] is 0.4. Further, the “SI (KCL22)” value in experiment [5] is recorded as 2.7.
For `OCCOCCN1CCN(c2ccc(Nc3nc(Nc4cccc(F)c4)c4ncn(CC5CC5)c4n3)cc2)CC1` [Compound 7a, 2-(2-(4-(4-((9-(Cyclopropylmethyl)-6-((3-fluorophenyl)amino)-9H-purin-2-yl)amino)phenyl)piperazin-1-yl)ethoxy)ethan-1-ol], the GI50 in experiment [1] is 6.85 ± 0.66 µM; in experiment [3], 1.37 ± 0.61 µM; in experiment [4] (Homo sapiens) it was 17.4 ± 2.02 µM; in experiment [5], 2.38 ± 1.12 µM. For the same compound, the IC50 was 0.13 µM in experiment [2] (setting [7]) and 0.13 ± 0.03 µM in experiment [2] (setting [8]). Also, the “SI (K562)” value in experiment [3] is 5.0. For the same compound, the “SI (KCL22-B8)” value in experiment [4] worked out at 0.4. For the same compound, the “SI (KCL22)” value in experiment [5] stood at 2.9.
As to `Cc1cn(-c2cc(NC(=O)c3ccc(C)c(Nc4nccc(-c5cccnc5)n4)c3)cc(C(F)(F)F)c2)cn1` [nilotinib], in experiment [6], the GI50 is greater than 20 µM.
With `N#Cc1cccc(Nc2nc(Nc3ccc(N4CCN(CCO)CC4)cc3)nc3c2ncn3CC2CC2)c1` [Compound 7b, 3-((9-(Cyclopropylmethyl)-2-((4-(4-(2-hydroxyethyl)piperazin-1-yl)phenyl)amino)-9H-purin-6-yl)amino)benzonitrile], the GI50 came to 14.8 ± 0.91 µM in experiment [1], 4.04 ± 1.87 µM in experiment [3], 17.9 ± 2.71 µM in experiment [4] (Homo sapiens) and 13.1 ± 2.21 µM in experiment [5]. For the same compound, the figures for the IC50 in experiment [2] (setting [7]) and in experiment [2] (setting [8]) were 0.46 µM and 0.46 ± 0.15 µM, respectively. In addition, the “SI (K562)” value in experiment [3] is 3.6. The “SI (KCL22-B8)” value in experiment [4] is 0.8. Moreover, the “SI (KCL22)” value in experiment [5] came out at 1.1.
Turning to `COc1cc(Nc2nc(Nc3ccc(N4CCN(CCO)CC4)cc3)nc3c2ncn3CC2CC2)ccc1Br` [Compound 7g, 2-(4-(4-((6-((4-Bromo-3-methoxyphenyl)amino)-9-(cyclopropylmethyl)-9H-purin-2-yl)amino)phenyl)piperazin-1-yl)ethan-1-ol], the GI50 was determined as 4.32 ± 1.42 µM in experiment [1]; 2.34 ± 1.04 µM in experiment [3]; 16.6 ± 0.92 µM in experiment [4]; 15.4 µM in experiment [4] (Homo sapiens); 5.51 ± 1.08 µM in experiment [5]. Further, the IC50 in experiment [2] (setting [7]) was 0.791 µM; in experiment [2] (setting [8]), 0.79 ± 0.14 µM. Moreover, the “SI (K562)” value in experiment [3] is 1.8. Also, the “SI (KCL22-B8)” value in experiment [4] was 0.3. Besides, the “SI (KCL22)” value in experiment [5] was 0.8.
